Source: ChEMBL document CHEMBL1201862, “PubChem BioAssay data set” (2004)
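In this assay, cells in 96-well plates receive the compound at five concentrations for 48 hours. Endpoints are linearly interpolated between the surrounding concentrations. At the GI50, growth is halved.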 Active and inactive are the calls of the source. Rule as the data show it: active = GI50 up to about 1.1 µM and inactive = higher.

Key:
Assay in all cases: inhibition of tumour cell growth, NCI panel, 48 h
[1] = system: DLD-1
[2] = system: DMS-273
[3] = system: HOP-18
[4] = system: KM-20L2
[5] = system: LXFL 529
[6] = system: M19-MEL
[7] = system: RXF 631
[8] = system: SNB-78
[9] = system: XF498

Measured: GI50

C/C(=N\O)c1sc(-n2nc(-c3ccccc3)cc2-c2ccccc2)nc1C
inactive: [1] 11.5 µM | [2] 22.5 µM | [3] > 10 µM | [4] 11.5 µM | [5] 11.7 µM | [6] 13.3 µM | [7] 14.8 µM | [8] 29.8 µM | [9] > 10 µM

O=C1c2ccccc2NC1(c1ccccc1)c1c(-c2ccccc2)[nH]c2ccccc12 (configuration not stated)
inactive: [1] 9.2 µM | [2] 6.84 µM | [3] 44.8 µM | [4] 25.1 µM | [5] 20.4 µM | [6] 24.3 µM | [7] 9.73 µM | [8] 33.6 µM | [9] 44 µM

CCCCCCCCCc1cc(=O)c2ccc(O)cc2o1
inactive: [1] > 100 µM | [2] 46.8 µM | [3] > 100 µM | [4] > 100 µM | [5] 41.7 µM | [6] > 100 µM | [7] 46.2 µM | [8] 38.9 µM | [9] 86.5 µM
